Read-outs that look alike come from different tables or passages of the source.
Legend:
[1] = Lipophilicity: octanol-water partition coefficient, shake-flask method
Method: The octanol-water partition coefficients (P) of all the complexes were determined using a shake-flask method^8. Water (100 mL, distilled after milli-Q purification) and n-octanol (100 mL, Sigma Aldrich, ACS spectrophotometric grade, ≥99%) were shaken together for 24 h to allow saturation of both phases. Stock solutions of the compounds ([…]) were prepared in the aqueous phase. Aliquots (2 mL) of each of these stock solutions were then added to an equal volume of the n-octanol phase. The resultant biphasic solution was mixed for 15 min and then centrifuged (3000 tr/min, 5 min) to separate the phases. The concentrations of the complex in the organic and aqueous phases were then determined using UV absorbance spectroscopy (260 nm). The blank is the water saturated with n-octanol. Log P was defined as logarithm of the ratio of the concentrations of the complex in the organic and aqueous phases (values reported are the means of at least three separated determinations).
The Log P values have been determined by a classical shake-flask method.

[2] = Emission lifetime measurement; type: physicochemical
Method: Fluorescence lifetime measurements were performed by an Edinburgh FLS920 spectrofluorimeter equipped with a TCC900 card for data acquisition in time-correlated single-photon counting experiments (0.5 ns time resolution) with a D2 lamp and an LDH—P-C-405 pulsed diode laser. The estimated experimental error is 2 nm on the band maximum (5% on the lifetime, 10% on the fluorescence quantum yield).
The emission lifetimes of biotin-vectorized complexes (I-a) to (I-l) range from 138 ns to 411 ns, among them, the lifetime of biotin-vectorized complexes (I-c), (I-e), (I-k) are 411, 224, and 322 ns respectively. The emission lifetimes of FTS-vectorized complexes (II-a) to (II-l) range from 167 ns to 486 ns, among them, the lifetime of FTS-vectorized complexes (II-c) and (II-k) are 319 and 486 ns respectively. The emission lifetimes of PSMA-vectorized complexes (III-a) to (III-l) are in the range of 159-649 ns, among them, the lifetime of complexes (III-a) and (III-k) were 248 and 649 ns, respectively. The emission lifetimes of Fc-vectorized complexes (IV-a) to (IV-l) are in the range of 178-228 ns.

[3] = Luminescence emission spectra and quantum yield; type: physicochemical; conditions: room temperature; reference POPOP in hexane or rhodamine B in ethanol
Method: Fluorescence and phosphorescence emission spectra were obtained with a HORIBA JOBIN YVON, fluromax-4 and spectrofluorometer.
Luminescence quantum yields were measured according to the method of Demas and Crosby, on solution samples at RT. The quantum yield is defined as: […]
Where ΦP is the quantum yield of the sample, ΦR is the know quantum yield of the reference standard. […].
The luminescence spectra of vectorized iridium(III) complexes were determined in CH2Cl2 at room temperature (Table 3).

[4] = UV/Vis absorption spectra; type: physicochemical; conditions: room temperature; for maximum absorption, lowest-lying bands in the visible region over 360 nm: CH2Cl2 or CH2Cl2/MeOH (1:1); for λmax (nm) ε (M^−1 · cm^−1): air-saturated CH2Cl2 or CH2Cl2/MeOH (1:1), 50 μM, ε in brackets, sh = shoulder
Method: UV/Vis absorption spectra were recorded at RT on solutions contained in quartz cuvettes (optical pathlength 1 cm, Hellma®) with a PerkinElmer® UV/VIS/NIR spectrophotometer Lambda 950 and a PerkinElmer® detector UV/VIS/NIR Accessory 2D Detector Module.

[5] = tested on: NIH-3T3 fibroblast cells (non-tumor); assay: Cell viability assay (MTT), dark and blue light; type: cell-based, Murine; conditions: for GI50: read-out: GI50; for Photosensitizing index (PI): NIH-3T3, dark vs blue light
Method: Cells were grown in humidified incubators at 37° C. in 5% CO2. Murine MC3T3 osteoblast and NIH-3T3 fibroblast cells-used as non-tumor cell models-were cultured in a-MEM medium and DMEM medium supplemented with 10% fetal bovine serum (FBS) and 1% Penicillin/Streptomycin (P/S) antibiotics, respectively. Human T24 bladder, MGHU3 bladder, Scaber bladder, A549 lung, MCF7 breast, MiaPaCa2 pancreas cancer cells were cultured in DMEM medium supplemented with 10% FBS and 1% P/S antibiotics. […] Human Hela cervix and HepG2 liver cancer cells were cultured EMEM medium supplemented with 10% FBS and 1% P/S antibiotics.
(§1) MTT reagent (3-(4,5-dimethylthiazol-2-yl)-2,5-diphenyltetrazolium bromide) was used to determine cell death as originally described by Mosmann. Briefly, cells were seeded from 5,000 to 10,000 cells/well in 24-well plates (1 mL) depending on the cell type and allowed to attach overnight. The complexes were prepared in DMSO. The concentration of the complexes was calculated based on the elemental composition of the complexes determined by the elemental analyses. All cell viability experiments were carried out with a fixed concentration of 0.1% (v/v) DMSO. After 72 h of treatment, cells were incubated at 37° C. and 5% CO2 with 25 μL of MTT solution (5 mg/ml; Sigma-Aldrich) in 24-well plates for 3 to 4 h. After solubilization with 500 μL of DMSO, formazan was quantified spectrophotometrically with a microplate reader at 570 nm absorbance (ClarioSTAR, BMG LabTech). […] All the results were calculated from data obtained in at least three independent experiments performed in triplicate.
(§2) Two sets of experiments were conducted in parallel for each complex to be studied:
(§3) 1. The cells were incubated with the different complexes (in the dark) for 72 h.
(§4) 2. The cells were incubated for 8 h with the different complexes (in the dark), then irradiated for 10 min, followed by an incubation in the dark up to 72 h.

[6] = tested on: PC-3 prostate cancer cells (PSMA-negative); assay: Cell viability assay (MTT), dark and blue light; type: cell-based, Human; conditions: for GI50: read-out: GI50; for Photosensitizing index (PI): PC3, dark vs blue light
Method: Cells were grown in humidified incubators at 37° C. in 5% CO2. Murine MC3T3 osteoblast and NIH-3T3 fibroblast cells-used as non-tumor cell models-were cultured in a-MEM medium and DMEM medium supplemented with 10% fetal bovine serum (FBS) and 1% Penicillin/Streptomycin (P/S) antibiotics, respectively. Human T24 bladder, MGHU3 bladder, Scaber bladder, A549 lung, MCF7 breast, MiaPaCa2 pancreas cancer cells were cultured in DMEM medium supplemented with 10% FBS and 1% P/S antibiotics. Human ASPC-1 pancreas, PC-3 prostate, DU-145 prostate, C4-2B prostate and 22rV1 prostate cancer cells were cultured in RPMI medium supplemented with 10% FBS and 1% P/S antibiotics. Human Hela cervix and HepG2 liver cancer cells were cultured EMEM medium supplemented with 10% FBS and 1% P/S antibiotics.
as §1
Irradiation was conducted using an in-house device, a series of blue light LEDs selected according to the absorption spectra of the compounds at 458 nm wavelength with an emitted power of 9.6 Watts. The light fluence was measured at 458 nm with an optical power meter Thorlabs PM100A at different distances between the cell layer and the light source (5 and 10 cm).
as §2, §3, §4

[7] = n-octanol/water, shake-flask, mean of at least three determinations

| SMILES | Log P [1, 7] | Log P [1] | τ1 emission lifetime [2] [ns] | ΦP emission phosphorescence quantum yield [3] [%] | maximum absorption, lowest-lying bands in the visible region over 360 nm [4] | λmax (nm) ε (M^−1 · cm^−1) [4] | GI50 ([5]; NIH-3T3, blue light) [µM] | Photosensitizing index (PI) [5] | GI50 ([5]; NIH-3T3, dark) [µM] | SI (vs NIH-3T3) ([6]; PC3, blue light) | GI50 ([6]; PC3, blue light) [µM] | SI (vs NIH-3T3) ([6]; PC3, dark) | Photosensitizing index (PI) [6] | GI50 ([6]; PC3, dark) [µM] | SI (vs NIH-3T3) PC-3 Blue ([6]; blue light 458 nm) |
| --- | --- | --- | --- | --- | --- | --- | --- | --- | --- | --- | --- | --- | --- | --- | --- |
| F[P-](F)(F)(F)(F)F.O=C(CCCC[C@@H]1SC[C@@H]2NC(=O)N[C@@H]21)NCCCn1cc[n+]2[c]1[Ir-3]13([c]4ccccc4-c4ccc(C(=O)O)c[n+]41)([c]1ccccc1-c1ccc(C(=O)O)c[n+]13)[n+]1ccccc1-2 [I-f] | −0.68 ± 0.07 |  |  |  |  |  |  |  |  |  |  |  |  |  |  |
| CC(C)=CCC/C(C)=C/CC/C(C)=C/CSc1ccccc1C(=O)NCCCn1cc[n+]2[c]1[Ir-3]13([c]4ccccc4-c4cccc[n+]41)([c]1ccccc1-c1cccc[n+]13)[n+]1ccccc1-2.F[P-](F)(F)(F)(F)F [II-a] |  | 1.70 ± 0.08 | 210 | 0.5 | around 380 nm | 308 (sh) (14540), 380 (4505) nm (M^−1 · cm^−1) |  |  |  |  |  |  |  |  |  |
| CC(C)=CCC/C(C)=C/CC/C(C)=C/CSc1ccccc1C(=O)NCCCn1cc[n+]2[c]1[Ir-3]13([c]4cc(C)ccc4-c4cccc[n+]41)([c]1cc(C)ccc1-c1cccc[n+]13)[n+]1ccccc1-2.F[P-](F)(F)(F)(F)F [II-b] |  | 1.68 ± 0.02 | 167 | 0.4 | around 380 nm | 306 (sh) (15875), 382 (4560) nm (M^−1 · cm^−1) |  |  |  |  |  |  |  |  |  |
| COC(=O)c1ccc2[c](c1)[Ir-3]13([c]4cc(C(=O)OC)ccc4-c4cccc[n+]41)([c]1n(CCCNC(=O)c4ccccc4SC/C=C(\C)CC/C=C(\C)CCC=C(C)C)cc[n+]1-c1cccc[n+]13)[n+]1ccccc1-2.F[P-](F)(F)(F)(F)F [II-c] |  | 1.08 ± 0.01 | 319 | 4.6 |  | 310 (sh) (21710), 355 (5105), 398 (3925) nm (M^−1 · cm^−1) |  |  |  |  |  |  |  |  |  |
| COC(=O)c1cccc2[c]1[Ir-3]13([c]4c(C(=O)OC)cccc4-c4cccc[n+]41)([c]1n(CCCNC(=O)c4ccccc4SC/C=C(\C)CC/C=C(\C)CCC=C(C)C)cc[n+]1-c1cccc[n+]13)[n+]1ccccc1-2.F[P-](F)(F)(F)(F)F [II-d] |  | 1.40 ± 0.02 | 201 | 0.9 | around 370 nm | 372 (4535) nm (M^−1 · cm^−1) |  |  |  |  |  |  |  |  |  |
| F[P-](F)(F)(F)(F)F.O=C(NCCCn1cc[n+]2[c]1[Ir-3]13([c]4ccccc4-c4cccc[n+]41)([c]1ccccc1-c1cccc[n+]13)[n+]1ccccc1-2)[c-]1cccc1.[Fe+2].c1cc[cH-]c1 [IV-a] | 0.61 ± 0.07 |  | 197 | 0.04 | around 380 nm | 304 (sh) (25840), 381 (8080) nm (M^−1 · cm^−1) | 6.7 | 4.2 | 28.2 | 2.8 | 2.4 | 9.9 | 1.2 |  |  |
| Cc1ccc2[c](c1)[Ir-3]13([c]4cc(C)ccc4-c4cccc[n+]41)([c]1n(CCCNC(=O)[c-]4cccc4)cc[n+]1-c1cccc[n+]13)[n+]1ccccc1-2.F[P-](F)(F)(F)(F)F.[Fe+2].c1cc[cH-]c1 [IV-b] | 1.63 ± 0.02 |  | 197 | 0.03 | around 380 nm | 308 (sh) (27820), 379 (8620) nm (M^−1 · cm^−1) | 13.2 | 1.1 | 13.9 |  |  | 16.4 | 2.2 | 0.85 | 33.8 |
| F[P-](F)(F)(F)(F)F.O=C(O)c1ccc2[n+](c1)[Ir-3]13([c]4ccccc4-2)([c]2ccccc2-c2ccc(C(=O)O)c[n+]21)[c]1n(CCCNC(=O)[c-]2cccc2)cc[n+]1-c1cccc[n+]13.[Fe+2].c1cc[cH-]c1 [IV-f] | 1.08 ± 0.03 |  | 202 | 0.12 |  | 304 (sh) (22560), 410 (4150) nm (M^−1 · cm^−1) |  |  |  |  |  |  |  |  |  |

Source: patent US20260209260A1, “VECTORIZED NHC IRIDIUM(III) COMPLEXES AND USE THEREOF IN PHOTODYNAMIC THERAPY AND/OR DIAGNOSTIC” (CENTRE NATIONAL DE LA RECHERCHE SCIENTIFIQUE, priority 2022, published 2026)
